Test results reported in patent publication US10675352B2 (CENTROSE, LLC, priority 2014, dated 2020).
Like-named read-outs stand apart in the source and are kept apart here.

Experiments:
[1] = tested on: Ramos; assay: cells; settings: Homo sapiens, 72 h, read-out: EC50 in picoM, Ramos
[2] = tested on: SU-DHL-8 cells; assay: cells; settings: Homo sapiens, SU-DHL-8, 72 h, read-out: EC50 in picoM, SUDHL8
[3] = tested on: HL60, U937, MV411, Hut78, H929, and RAMOS; assay: In vitro cytotoxic activity on six human blood cancer cell types, overall statements; type: cell-based; settings: all cell lines tested except RAMOS
Procedure: Agent loading was determined to be about 4.

[4] = tested on: SU-DHL-8 cells; settings: agents and agent-linker intermediates; value in parentheses; 3 days incubation
[5] = tested on: Ramos

Structure (SMILES) | EC50 [1] [nM] | EC50 [2] [nM] | effect of ATRA alone on cell growth [3] | % viab., SUDHL8 [4] [%] | % viab., Ramos ([5]; human, 3 days) [%] | % viab., Ramos ([5]; agents and agent-linker intermediates, value in parentheses, 3 days incubation) [%]
C[C@]12CC[C@H](OC(=O)NCCCN3CCN(CCCN)CC3)C[C@H]1CC[C@@H]1[C@@H]2CC[C@]2(C)[C@@H](C3=CC(=O)OC3)CC[C@]12O | > 50 | > 50 | – | – | – | –
CN(CCCN)CCCNC(=O)O[C@H]1CC[C@@]2(C)C(CCC3C2CC[C@]2(C)C(c4ccc(=O)oc4)CC[C@]32O)C1 (stereo in doubt) [CEN-372, 5-[(1S,2S,5S,7R,10R,11S,14S,15R)-5-{3-[N-Methyl(3-aminopropyl)amino]propylaminocarbonyloxy}-11-hydroxy-2,15-dimethyltetracyclo[8.7.0.02,7.011,15]heptadec-14-yl]-2-pyranone] | 3.6 | 4.4 | – | – | – | –
C[C@]12CC[C@H](OC(=O)NCCCNCCCN)CC1CCC1C2CC[C@]2(C)C(c3ccc(=O)oc3)CC[C@]12O (stereo in doubt) [CEN-373, 5-{(1S,2S,5S,7R,10R,11S,14S,15R)-5-[3-(3-Aminopropylamino)propylaminocarbonyloxy]-11-hydroxy-2,15-dimethyltetracyclo[8.7.0.02,7.011,15]heptadec-14-yl}-2-pyranone] | 4 | 5.9 | – | – | – | –
CC1=C(/C=C/C(C)=C/C=C/C(C)=C/C(=O)O)C(C)(C)CCC1 [ATRA, all-trans-retinoic acid] | – | – | slowed cell growth | – | – | –
C[C@]12CC[C@H](O)C[C@H]1CC[C@@H]1[C@@H]2CC[C@]2(C)[C@@H](c3ccc(=O)oc3)CC[C@]12O [Bufalin, reference compound] | 7.3 | 16 | – | – | – | –
C[C@]12CCC(OC[C@@H]3OC[C@H](N)C(O)C3O)C=C1CCC1C2CC[C@]2(C)[C@@H](c3ccc(=O)oc3)CC[C@]12O (some centres unmarked) [CEN09-106] | 1.9 | 2.07 | – | 0 | – | –
C[C@]12CC[C@H](OC[C@@H]3OC[C@H](N)C(O)C3O)CC1CCC1C2CC[C@]2(C)[C@@H](C3=CC(=O)OC3)CC[C@]12O (some centres unmarked) [CEN-319] | 5.8 | 8.4 | – | – | 0 | –
C[C@]12CC[C@H](OC(=O)NCCCN3CCN(CCCN)CC3)CC1CCC1C2CC[C@]2(C)[C@@H](c3ccc(=O)oc3)CC[C@]12O (some centres unmarked) [CEN-371] | 7.81 | 11 | – | 0 | – | 0
C[C@]12CC[C@H](O)C[C@H]1CC[C@@H]1[C@@H]2CC[C@]2(C)[C@@H](C3=CC(=O)OC3)CC[C@]12O [Digitoxigenin, reference compound] | > 50 | > 50 | – | – | – | –
C[C@]12CC[C@H](O)C=C1CC[C@@H]1[C@@H]2CC[C@]2(C)[C@@H](c3ccc(=O)oc3)CC[C@]12O [Scillarenin, reference compound] | 17 | 18 | – | – | – | –
